Data reported in ChEMBL document CHEMBL4665655, “Highly tunable thiosulfonates as a novel class of cysteine protease inhibitors with anti-parasitic activity against Schistosoma mansoni” (Bioorg Med Chem, 2019).

Key:
[1] = Inhibition of cysteine protease in Schistosoma mansoni assessed as reduction in schistosomula viability incubated for 7 days by inverted microscopy analysis
[2] = Inhibition of cysteine protease in Schistosoma mansoni assessed as reduction in schistosomula viability incubated for 3 days by inverted microscopy analysis
[3] = target: T1, Papain (Carica papaya, UniProt P00784); assay: Inhibition of papaya papain assessed as reduction in p-nitoaniline release using Nalpha-benzoyl-L-arginine 4-nitroanilide hydrochloride as substrate measured after 1 hr
T1 sequence (P00784 whole entry): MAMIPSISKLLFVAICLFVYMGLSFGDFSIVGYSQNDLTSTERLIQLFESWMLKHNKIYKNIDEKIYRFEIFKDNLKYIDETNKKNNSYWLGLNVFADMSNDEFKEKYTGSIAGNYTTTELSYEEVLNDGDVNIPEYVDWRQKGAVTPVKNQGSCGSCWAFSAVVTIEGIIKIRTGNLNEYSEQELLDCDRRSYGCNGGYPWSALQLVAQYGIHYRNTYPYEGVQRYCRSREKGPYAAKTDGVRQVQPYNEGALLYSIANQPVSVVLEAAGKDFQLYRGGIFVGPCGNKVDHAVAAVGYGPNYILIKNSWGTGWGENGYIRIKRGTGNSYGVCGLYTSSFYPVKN

[4] = Aqueous stability of the compound in 0.1 M sodium phosphate buffer at pH 6 to 7 incubated under shaken condition by HPLC analysis; format: physicochemical
[5] = Aqueous stability of the compound in 0.1 M sodium phosphate buffer assessed as half life at pH 8 incubated under shaken condition by HPLC analysis; format: physicochemical
[6] = Aqueous stability of the compound in 0.1 M sodium phosphate buffer assessed as half life at pH 7 incubated under shaken condition by HPLC analysis; format: physicochemical
[7] = Aqueous stability of the compound in 0.1 M sodium phosphate buffer assessed as half life at pH 6 incubated under shaken condition by HPLC analysis; format: physicochemical
[8] = Aqueous stability of the compound in 0.1 M sodium phosphate buffer assessed as time taken for drug degradation at pH 7 to 8 incubated under shaken condition by HPLC analysis; format: physicochemical

| SMILES | IC50 [3] | IC50 [1] | IC50 [2] | other results |
| --- | --- | --- | --- | --- |
| CN1CCN(C(=O)N[C@@H](Cc2ccccc2)C(=O)N[C@@H](CCCNC(=N)N)CSS(=O)(=O)c2ccc([N+](=O)[O-])cc2)CC1 | 129 nM | – | – | – |
| Cc1ccc(S(=O)(=O)SC[C@H](CCCNC(=N)N)NC(=O)[C@H](Cc2ccccc2)NC(=O)N2CCN(C)CC2)cc1 | 162 nM | – | – | – |
| Cc1ccc(S(=O)(=O)SC[C@H](CCc2ccccc2)NC(=O)[C@H](Cc2ccccc2)NC(=O)N2CCN(C)CC2)cc1 | 182 nM | 26900 nM | 41100 nM | – |
| CN1CCN(C(=O)N[C@@H](Cc2ccccc2)C(=O)N[C@@H](CCc2ccccc2)CSS(=O)(=O)c2ccc([N+](=O)[O-])cc2)CC1.O=C(O)C(F)(F)F | 186 nM | 14700 nM | 29300 nM | half-life [7]: 1.45 h; Time [8]: < 1 h |
| O[C@@H](c1cc(C(F)(F)F)nc2c(C(F)(F)F)cccc12)[C@H]1CCCCN1 [(S,R)-MEFLOQUINE] | – | 400 nM | 2400 nM | – |
| CN1CCN(C(=O)N[C@@H](Cc2ccccc2)C(=O)N[C@H](/C=C/S(=O)(=O)c2ccccc2)CCc2ccccc2)CC1 [K-777] | 81 nM | 7300 nM | 59900 nM | – |

Continued by falling IC50 [3], values first:

| IC50 [3] | SMILES | IC50 [1] | IC50 [2] | other results |
| --- | --- | --- | --- | --- |
| 190 nM | CN1CCN(C(=O)N[C@@H](Cc2ccccc2)C(=O)N[C@@H](CCc2ccccc2)CSS(=O)(=O)c2ccccc2)CC1 | 21400 nM | 64400 nM | – |
| 168 nM | CN1CCN(C(=O)N[C@@H](Cc2ccccc2)C(=O)N[C@@H](CCc2ccccc2)CSS(=O)(=O)C2CCCCC2)CC1.O=C(O)C(F)(F)F | 13500 nM | 25400 nM | Stabilty [4]: Stable; half-life [5]: 6 h |
| 168 nM | CN1CCN(C(=O)N[C@@H](Cc2ccccc2)C(=O)N[C@@H](CCCNC(=N)N)CSS(=O)(=O)c2ccccc2)CC1 | – | – | – |
| 148 nM | COc1ccc(S(=O)(=O)SC[C@H](CCc2ccccc2)NC(=O)[C@H](Cc2ccccc2)NC(=O)N2CCN(C)CC2)cc1.O=C(O)C(F)(F)F | 13600 nM | 44900 nM | half-life [6]: 24 h; half-life [7]: 1 h |
| 124 nM | COc1ccc(S(=O)(=O)SC[C@H](CCCNC(=N)N)NC(=O)[C@H](Cc2ccccc2)NC(=O)N2CCN(C)CC2)cc1 | – | – | – |
| 106 nM | CN1CCN(C(=O)N[C@@H](Cc2ccccc2)C(=O)N[C@@H](CCCNC(=N)N)CSS(=O)(=O)C2CCCCC2)CC1 | – | – | – |
